{
  "source": "patent US8809001B2",
  "about": "“High throughput assays for inhibitors and activators of PAQR receptors” (University of Florida Research Foundation, Inc., priority 2007, dated 2014)",
  "target": "T1, AdipoR1 (Homo sapiens, UniProt Q96A54)",
  "T1 construct": "expressed in transfected cells; host or cells: Saccharomyces cerevisiae BY4742, GAL1-driven pYES260 plasmid",
  "T1 sequence (Q96A54 1-375)": "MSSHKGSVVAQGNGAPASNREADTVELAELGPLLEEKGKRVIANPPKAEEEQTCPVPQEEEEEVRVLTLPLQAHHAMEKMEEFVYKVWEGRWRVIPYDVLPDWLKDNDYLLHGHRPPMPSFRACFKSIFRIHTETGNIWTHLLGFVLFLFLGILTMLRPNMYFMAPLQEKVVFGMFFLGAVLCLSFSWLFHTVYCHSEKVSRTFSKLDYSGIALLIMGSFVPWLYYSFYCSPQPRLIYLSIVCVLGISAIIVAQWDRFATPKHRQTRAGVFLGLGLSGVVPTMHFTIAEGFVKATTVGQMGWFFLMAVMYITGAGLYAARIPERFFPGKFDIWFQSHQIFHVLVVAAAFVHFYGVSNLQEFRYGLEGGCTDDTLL",
  "assay": "FET3-lacZ (pFET3-397) reporter repression in yeast expressing AdipoR1",
  "assay_type": "cell-based",
  "details": "concentrations as high as 10 μM",
  "text": "IZH1-4 were cloned into pRS316-GAL1 via gap repair as previously described (Lyons et al., 2004). The triple hemaglutinin epitope (3×HA) tagged construct of the IZH2 gene was generated by replacing the ZRC1 promoter and open reading frame in the YCpZRC1-HA plasmid (MacDiarmid et al., 2002) with those of IZH2. This was accomplished by gap repair of Age I-digested YCpZRC1-HA to generate pIZH2-3×HA. This construct has the IZH2 gene driven by its native promoter and retains the ZRC1 terminator sequence. The native IZH2 promoter was then exchanged with the GAL1 promoter using gap repair of pIZH2-3×HA plasmids cut with EcoN I. AdipoR1 and AdipoR2 were amplified from cDNAs obtained from OpenBiosystems (Accession #: BC010743 and BC051858, respectively). PCR products were cloned into NcoI/BamHI digested pYES260 vector (Melcher, 2000) by gap repair allowing for GAL1-driven expression. Plasmids containing GAL1-driven the TAP (Tandem Affinity Purification) tagged NRG1 and NRG2 constructs were purchased from OpenBiosystems. […]\nAssays and growth conditions. […] Cells were allowed to grow to mid-log phase at which time the activity of the FET3 gene was monitored using a FET3-lacZ promoter-reporter construct. lacZ activities are presented as a percentage of activity seen in untreated cells expressing the appropriate empty expression vector control. […]",
  "data": [
    {"smiles": "CC(=O)[C@H]1CC[C@H]2[C@@H]3CCC4=CC(=O)CC[C@]4(C)[C@H]3CC[C@]12C", "note": "[Progesterone, progesterone]", "values": [
      {"measurement": "response of AdipoR1 to progesterone", "result": "do not respond"}
    ]}
  ]
}
